In ChEMBL document CHEMBL4406807, “Discovery of 3,4,6-Trisubstituted Piperidine Derivatives as Orally Active, Low hERG Blocking Akt Inhibitors via Conformational Restriction and Structure-Based Design” (J Med Chem, 2019):

Key:
[1] = target: RAC-alpha serine/threonine-protein kinase (Homo sapiens, UniProt P31749)
Description: Inhibition of human Akt1 expressed in Escherichia coli using STK Substrate 2-biotin as substrate incubated for 1 hr by HTRF assay

[2] = target: T1, Serine/threonine-protein kinase Sgk1 (Homo sapiens, UniProt O00141); assay: Inhibition of human SGK by mobility shift assay
T1 sequence (O00141 whole entry): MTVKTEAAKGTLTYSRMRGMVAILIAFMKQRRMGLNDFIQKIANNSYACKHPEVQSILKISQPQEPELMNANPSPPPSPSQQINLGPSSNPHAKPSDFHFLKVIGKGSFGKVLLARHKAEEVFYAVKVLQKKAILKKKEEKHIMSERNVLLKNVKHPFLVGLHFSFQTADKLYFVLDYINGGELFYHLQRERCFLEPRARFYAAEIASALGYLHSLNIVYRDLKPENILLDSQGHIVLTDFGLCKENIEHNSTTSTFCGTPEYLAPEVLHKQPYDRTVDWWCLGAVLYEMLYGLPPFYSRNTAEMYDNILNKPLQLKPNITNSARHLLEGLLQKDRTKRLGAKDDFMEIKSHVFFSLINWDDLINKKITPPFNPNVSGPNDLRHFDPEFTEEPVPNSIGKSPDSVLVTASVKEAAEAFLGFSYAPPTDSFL

[3] = Microsomal stability in mouse liver microsomes assessed as compound remaining at 100 ug/ml in presence of NADPH measured at 1.5 hrs by LC/MS analysis; type: ADME, Microsome; conditions: read-out: Stability
[4] = tested on: HCT-116; assay: cells; conditions: Homo sapiens, HCT-116, 72 h
[5] = AUC (0 to infinity) in Sprague-Dawley rat at 25 mg/kg, ig measured up to 24 hrs by LC-MS/MS analysis; type: ADME, organism-based; design: dose 25 mg/kg, route […], time infinity; conditions: in vivo, po
[6] = tested on: LNCaP; assay: Antiproliferative activity against human LNCAP cells; type: functional, cell-based
[7] = Inhibition of recombinant His-tagged human PKA expressed in Escherichia coli using Ser/Thr 01 as substrate after 1 hr by Z-lyte assay
[8] = Microsomal stability in rat liver microsomes assessed as compound remaining at 100 ug/ml in presence of NADPH measured at 1.5 hrs by LC/MS analysis; type: ADME, Microsome; conditions: read-out: Stability
[9] = target: hERG (KCNH2) (Homo sapiens, UniProt Q12809); assay: Inhibition of ERG in human HEK293 cells at 3 uM at -80 mV holding potential by whole-cell patch clamp assay relative to control; type: cell-based; conditions: HEK293 cells expressing ERG
hERG (KCNH2), sequence (Q12809 whole entry): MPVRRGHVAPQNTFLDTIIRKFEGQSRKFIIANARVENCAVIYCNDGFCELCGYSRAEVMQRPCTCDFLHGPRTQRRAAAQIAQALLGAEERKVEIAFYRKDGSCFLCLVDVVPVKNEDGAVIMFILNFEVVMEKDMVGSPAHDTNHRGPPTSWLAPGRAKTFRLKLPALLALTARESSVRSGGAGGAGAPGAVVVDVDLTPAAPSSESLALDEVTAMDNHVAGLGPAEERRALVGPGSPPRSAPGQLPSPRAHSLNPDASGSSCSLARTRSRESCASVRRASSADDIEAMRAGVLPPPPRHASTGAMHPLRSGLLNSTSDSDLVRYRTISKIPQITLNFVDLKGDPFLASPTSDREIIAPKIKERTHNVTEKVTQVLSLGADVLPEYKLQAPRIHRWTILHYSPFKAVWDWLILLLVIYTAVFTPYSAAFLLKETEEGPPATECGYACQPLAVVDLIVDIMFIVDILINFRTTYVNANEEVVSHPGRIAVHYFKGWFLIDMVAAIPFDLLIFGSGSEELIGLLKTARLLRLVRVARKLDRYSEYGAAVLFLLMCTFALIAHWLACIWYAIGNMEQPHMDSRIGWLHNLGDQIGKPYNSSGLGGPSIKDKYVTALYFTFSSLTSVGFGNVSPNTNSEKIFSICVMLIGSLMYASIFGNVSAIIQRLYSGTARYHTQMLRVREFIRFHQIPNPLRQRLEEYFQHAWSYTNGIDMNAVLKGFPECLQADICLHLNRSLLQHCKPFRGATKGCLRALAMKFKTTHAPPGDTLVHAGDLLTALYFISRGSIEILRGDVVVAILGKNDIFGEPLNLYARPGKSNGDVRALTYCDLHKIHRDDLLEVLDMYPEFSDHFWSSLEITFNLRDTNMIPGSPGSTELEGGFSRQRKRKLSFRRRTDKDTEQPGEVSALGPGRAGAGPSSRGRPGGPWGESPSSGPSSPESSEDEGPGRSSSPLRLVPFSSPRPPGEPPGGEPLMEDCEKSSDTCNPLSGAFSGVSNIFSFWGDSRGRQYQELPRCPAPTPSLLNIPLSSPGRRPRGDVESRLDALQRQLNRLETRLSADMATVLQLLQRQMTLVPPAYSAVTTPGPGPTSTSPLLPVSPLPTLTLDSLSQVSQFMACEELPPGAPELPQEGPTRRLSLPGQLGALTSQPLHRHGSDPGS

[10] = tested on: OVCAR-8; assay: Antiproliferative activity against human OVCAR8 cells; type: functional, cell-based
[11] = target: RAC-gamma serine/threonine-protein kinase (Homo sapiens, UniProt Q9Y243); assay: Inhibition of Akt3 (unknown origin) by mobile shift assay
RAC-gamma serine/threonine-protein kinase, sequence (Q9Y243 whole entry): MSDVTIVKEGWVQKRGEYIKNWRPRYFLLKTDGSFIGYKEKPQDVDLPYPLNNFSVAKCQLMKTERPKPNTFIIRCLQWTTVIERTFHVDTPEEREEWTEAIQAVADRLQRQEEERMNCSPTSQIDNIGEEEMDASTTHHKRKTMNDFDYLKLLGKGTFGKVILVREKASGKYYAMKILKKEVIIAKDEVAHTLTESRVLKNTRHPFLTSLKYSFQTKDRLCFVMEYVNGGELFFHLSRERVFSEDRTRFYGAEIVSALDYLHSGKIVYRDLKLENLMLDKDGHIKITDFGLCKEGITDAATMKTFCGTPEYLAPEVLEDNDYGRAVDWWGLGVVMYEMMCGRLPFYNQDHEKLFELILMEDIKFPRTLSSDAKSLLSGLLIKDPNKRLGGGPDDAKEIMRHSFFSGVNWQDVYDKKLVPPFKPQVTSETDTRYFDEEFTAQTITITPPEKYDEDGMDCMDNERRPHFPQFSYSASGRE

[12] = Microsomal stability in monkey liver microsomes assessed as compound remaining at 100 ug/ml in presence of NADPH measured at 1.5 hrs by LC/MS analysis; type: ADME, Macaca mulatta, Microsome; conditions: rhesus monkey, read-out: Stability
[13] = Half-life in Sprague-Dawley rat at 25 mg/kg, ig measured up to 24 hrs by LC-MS/MS analysis; type: ADME, organism-based; conditions: in vivo, po
[14] = target: Rho-associated protein kinase 1 (Homo sapiens, UniProt Q13464); assay: Inhibition of human ROCK1 by mobile shift assay
[15] = target: Ribosomal protein S6 kinase beta-1 (Homo sapiens, UniProt P23443); assay: Inhibition of human P70S6K by mobility shift assay
Ribosomal protein S6 kinase beta-1, sequence (P23443 whole entry): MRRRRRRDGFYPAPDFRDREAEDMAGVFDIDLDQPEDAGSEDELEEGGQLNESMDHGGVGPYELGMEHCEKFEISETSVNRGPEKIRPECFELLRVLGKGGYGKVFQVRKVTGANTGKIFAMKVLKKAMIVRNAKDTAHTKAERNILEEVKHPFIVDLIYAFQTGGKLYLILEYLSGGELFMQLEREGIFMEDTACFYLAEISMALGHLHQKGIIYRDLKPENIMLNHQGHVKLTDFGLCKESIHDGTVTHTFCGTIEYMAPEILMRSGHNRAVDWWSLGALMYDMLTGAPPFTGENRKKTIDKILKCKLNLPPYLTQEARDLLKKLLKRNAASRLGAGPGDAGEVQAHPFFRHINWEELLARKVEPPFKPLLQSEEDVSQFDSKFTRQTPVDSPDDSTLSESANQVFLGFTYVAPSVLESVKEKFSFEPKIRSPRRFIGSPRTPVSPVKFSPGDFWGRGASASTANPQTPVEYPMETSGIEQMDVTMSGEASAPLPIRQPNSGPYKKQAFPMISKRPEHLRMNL

[16] = Cmax in Sprague-Dawley rat at 25 mg/kg, ig measured up to 24 hrs by LC-MS/MS analysis; type: ADME, organism-based; design: dose 25 mg/kg, route […]; conditions: in vivo, po
[17] = Stability in human plasma at 100 ug/ml after 1 hr by LC/MS analysis; type: ADME, cell-free; conditions: read-out: Stability
[18] = target: Ribosomal protein S6 kinase alpha-1 (Homo sapiens, UniProt Q15418); assay: Inhibition of RSK1 (unknown origin) by mobility shift assay
Ribosomal protein S6 kinase alpha-1, sequence (Q15418 whole entry): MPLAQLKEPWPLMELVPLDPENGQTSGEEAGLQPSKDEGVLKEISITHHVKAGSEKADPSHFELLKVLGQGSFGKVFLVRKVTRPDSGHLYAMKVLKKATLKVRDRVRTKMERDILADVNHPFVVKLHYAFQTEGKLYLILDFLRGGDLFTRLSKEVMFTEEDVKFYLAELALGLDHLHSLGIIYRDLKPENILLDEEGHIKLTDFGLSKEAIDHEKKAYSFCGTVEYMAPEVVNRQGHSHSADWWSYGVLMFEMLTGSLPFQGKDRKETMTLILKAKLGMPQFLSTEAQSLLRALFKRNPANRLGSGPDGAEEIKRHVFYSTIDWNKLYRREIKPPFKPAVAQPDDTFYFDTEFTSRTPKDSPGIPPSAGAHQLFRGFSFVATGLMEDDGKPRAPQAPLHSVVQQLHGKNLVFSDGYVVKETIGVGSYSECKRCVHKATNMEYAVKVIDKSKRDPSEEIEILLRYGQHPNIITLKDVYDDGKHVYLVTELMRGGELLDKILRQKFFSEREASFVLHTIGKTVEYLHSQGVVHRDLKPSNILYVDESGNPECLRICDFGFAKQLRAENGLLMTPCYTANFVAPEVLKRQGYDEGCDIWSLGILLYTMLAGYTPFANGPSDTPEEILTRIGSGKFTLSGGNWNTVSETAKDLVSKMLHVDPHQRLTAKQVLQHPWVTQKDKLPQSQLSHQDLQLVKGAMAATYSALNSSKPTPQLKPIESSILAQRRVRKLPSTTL

[19] = target: Protein kinase C (PKC); assay: Inhibition of PKC (unknown origin); type: protein assay, Homo sapiens
[20] = Stability in mouse plasma at 100 ug/ml after 1 hr by LC/MS analysis; type: ADME, cell-free; conditions: read-out: Stability
[21] = AUC (0 to t) in Sprague-Dawley rat at 25 mg/kg, ig measured up to 24 hrs by LC-MS/MS analysis; type: ADME, organism-based; design: time < 24 hr, dose 25 mg/kg, route […]; conditions: in vivo, po
[22] = Microsomal stability in dog liver microsomes assessed as compound remaining at 100 ug/ml in presence of NADPH measured at 1.5 hrs by LC/MS analysis; type: ADME, Canis lupus familiaris, Microsome; conditions: read-out: Stability
[23] = Tmax in Sprague-Dawley rat at 25 mg/kg, ig measured up to 24 hrs by LC-MS/MS analysis; type: ADME, organism-based; conditions: in vivo, po
[24] = MRT (0 to t) in Sprague-Dawley rat at 25 mg/kg, ig measured up to 24 hrs by LC-MS/MS analysis; type: ADME, organism-based; conditions: in vivo, po
[25] = MRT (0 to infinity) in Sprague-Dawley rat at 25 mg/kg, ig measured up to 24 hrs by LC-MS/MS analysis; type: ADME, organism-based; conditions: in vivo, po
[26] = target: RAC-beta serine/threonine-protein kinase (Homo sapiens, UniProt P31751); assay: Inhibition of human Akt2 by mobile shift assay
RAC-beta serine/threonine-protein kinase, sequence (P31751 whole entry): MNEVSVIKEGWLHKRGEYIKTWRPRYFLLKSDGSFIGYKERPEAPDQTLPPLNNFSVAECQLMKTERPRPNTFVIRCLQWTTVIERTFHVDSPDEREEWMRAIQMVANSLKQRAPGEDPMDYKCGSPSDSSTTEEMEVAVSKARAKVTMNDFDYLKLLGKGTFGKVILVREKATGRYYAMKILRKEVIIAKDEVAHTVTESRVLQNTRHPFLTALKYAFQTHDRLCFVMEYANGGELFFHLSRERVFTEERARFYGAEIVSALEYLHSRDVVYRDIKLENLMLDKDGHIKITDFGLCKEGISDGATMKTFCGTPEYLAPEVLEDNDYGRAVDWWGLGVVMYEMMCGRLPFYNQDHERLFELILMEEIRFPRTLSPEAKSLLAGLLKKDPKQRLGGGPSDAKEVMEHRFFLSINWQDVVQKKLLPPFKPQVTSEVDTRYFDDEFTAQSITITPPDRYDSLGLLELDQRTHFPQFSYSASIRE

[27] = Clearance in Sprague-Dawley rat at 25 mg/kg, ig measured up to 24 hrs by LC-MS/MS analysis; type: ADME, organism-based; conditions: in vivo, po
[28] = Volume of distribution in Sprague-Dawley rat at 25 mg/kg, ig measured up to 24 hrs by LC-MS/MS analysis; type: ADME, organism-based; conditions: in vivo, po
[29] = Toxicity in po dosed BALB/c nude mouse xenografted with human MM1S cells assessed as maximum tolerated dose administered once daily for 22 days; type: organism-based; conditions: in vivo
[30] = Toxicity in ICR mouse assessed as reduction in specific volume of RBC at 40 mg/kg, ig administered once daily for 7 days; type: organism-based; conditions: in vivo, po, 168 h
[31] = target: Serine/threonine-protein kinase AKT (Homo sapiens, UniProt P31751+Q9Y243+P31749); assay: Inhibition of Akt in human LNCaP cells assessed as reduction in PRAS40 phosphorylation at T246 residue after 1 hr by ELISA; type: cell-based
[32] = Cmax in ICR mouse at 20 mg/kg, po measured up to 48 hrs by LC-MS/MS analysis; type: ADME, organism-based; design: dose 20 mg/kg, route oral; conditions: in vivo
[33] = Toxicity in ICR mouse assessed as reduction in red blood cells at 40 mg/kg, ig administered once daily for 7 days; type: organism-based; conditions: in vivo, po, 168 h
[34] = Toxicity in ICR mouse assessed as reduction in creatinine level at 40 mg/kg, ig administered once daily for 7 days; type: organism-based; conditions: in vivo, po, 168 h
[35] = Toxicity in BALB/c nude mouse xenografted with human MM1S cells assessed as reduction in body weight at 10 mg/kg, po administered once daily for 22 days relative to control; type: organism-based; design: scale not given: the % may be the effect or the level left; conditions: in vivo, 528 h
[36] = Toxicity in BALB/c nude mouse xenografted with human MM1S cells assessed as reduction in mouse survival at 10 mg/kg, po administered once daily for 22 days; type: organism-based; conditions: in vivo, 528 h
[37] = tested on: MM1.S; assay: Antitumor activity against human MM1S cells xenografted in BALB/c nude mouse assessed as tumor growth inhibition at 10 mg/kg, po administered once daily for 22 days relative to control; type: functional; conditions: 528 h, read-out: TGI
[38] = Toxicity in ICR mouse assessed as induction of heavy gastrointestinal hemorrhage by autopsy analysis; conditions: in vivo
[39] = AUC (0 to infinity) in ICR mouse at 20 mg/kg, po measured up to 48 hrs by LC-MS/MS analysis; type: ADME, organism-based; design: dose 20 mg/kg, time infinity, route oral; conditions: in vivo
[40] = Half-life in ICR mouse at 20 mg/kg, po measured up to 48 hrs by LC-MS/MS analysis; type: ADME, organism-based; conditions: in vivo
[41] = Oral bioavailability in ICR mouse at 20 mg/kg measured up to 48 hrs by LC-MS/MS analysis; type: ADME, organism-based; conditions: in vivo
[42] = Toxicity in ICR mouse assessed as reduction in mouse survival at 20 to 40 mg/kg, ig administered once daily for 7 days; type: organism-based; conditions: in vivo, po, 168 h
[43] = Toxicity in ICR mouse assessed as reduction in hemoglobin level at 40 mg/kg, ig administered once daily for 7 days; type: organism-based; conditions: in vivo, po, 168 h

RAC-alpha serine/threonine-protein kinase, sequence (P31749 whole entry): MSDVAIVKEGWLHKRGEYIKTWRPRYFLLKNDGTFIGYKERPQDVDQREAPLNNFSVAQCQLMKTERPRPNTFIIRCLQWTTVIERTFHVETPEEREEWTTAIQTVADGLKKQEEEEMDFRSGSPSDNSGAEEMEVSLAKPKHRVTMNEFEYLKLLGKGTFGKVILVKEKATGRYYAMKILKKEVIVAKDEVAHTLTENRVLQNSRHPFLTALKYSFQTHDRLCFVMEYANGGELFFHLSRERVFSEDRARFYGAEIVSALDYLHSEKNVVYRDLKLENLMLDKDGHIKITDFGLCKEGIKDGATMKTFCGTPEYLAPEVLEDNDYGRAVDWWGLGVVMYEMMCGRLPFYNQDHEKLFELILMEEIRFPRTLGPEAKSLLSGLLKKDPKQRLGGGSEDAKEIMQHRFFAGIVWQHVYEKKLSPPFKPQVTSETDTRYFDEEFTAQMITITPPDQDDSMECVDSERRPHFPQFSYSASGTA

| Compound | IC50 [1] | IC50 [2] | remaining at 1.5 h, 100 ug/ml [3] | IC50 [4] | IC50 [6] | remaining at 1.5 h, 100 ug/ml [8] | inhibition at 3 µM [9] | IC50 [10] | IC50 [11] | remaining at 1.5 h, 100 ug/ml [12] | IC50 [14] | IC50 [15] | IC50 [18] | IC50 [19] | remaining at 1.5 h, 100 ug/ml [22] | IC50 [26] | further results |
| --- | --- | --- | --- | --- | --- | --- | --- | --- | --- | --- | --- | --- | --- | --- | --- | --- | --- |
| Cn1ncc(Cl)c1-c1cc(C(=O)N[C@@H]2CN[C@H](CCO)C[C@H]2c2ccc(F)c(F)c2)oc1Cl | 0.98 nM | 102 nM | > 99% | 360 nM | 60 nM | 69% | 9% | 460 nM | 0.12 nM | 18% | 38 nM | 7.1 nM | 32 nM | 16 nM | 96% | 0.54 nM | AUC(0-inf) [5]: 1660 ng·h/mL; IC50 [7]: 0.2 nM; half-life [13]: 12.7 h; Cmax [16]: 145 ng/mL; remaining at 1 h, 100 ug/ml [17]: > 99%; remaining at 1 h, 100 ug/ml [20]: > 99%; AUC(0-t) at 24 h [21]: 1010 ng·h/mL; Tmax [23]: 1.1 h; MRT last at 24 h [24]: 5.1 h; MRT inf [25]: 12.3 h; CL/F [27]: 433 mL/min/kg; Vd [28]: 300.9 L/kg |
| Cn1ncc(Cl)c1-c1cc(C(=O)N[C@@H]2CNCC[C@H]2c2ccc(F)c(F)c2)oc1Cl.O=C(O)C(O)C(O)C(=O)O | 3 nM | 59 nM | 89.9% | 210 nM | 60 nM | 69.7% | 62.1% | 40 nM | 0.1 nM | 39.9% | 20 nM | 7 nM | 48 nM | 156 nM | 86.9% | < 0.64 nM | MTD at 528 h [29]: < 10 mg/kg; Activity [30]: Toxic; IC50 [31]: 21.1 nM; Cmax [32]: 398 ng/mL; Activity [33]: Toxic; Activity [34]: Toxic; Activity [35]: <= 25%; Activity [36]: Toxic; inhibition in vivo at 10 mg/kg [37]: 87.5%; Activity [38]: Toxic; AUC [39]: 6670 ng·h/mL; half-life [40]: 10.7 h; bioavailability [41]: 97.9%; Activity [42]: Toxic; Activity [43]: Toxic |
